Experimental data published in patent publication US4551477A, “Esters of alkoxy-acylderivatives of carnitine and pharmaceutical compositions containing same” (Sigma-Tau Industrie Farmaceutiche Riunite S.P.A., priority 1974, dated 1985).

Key:
[1] = tested on: mice; assay: Antiarrhythmic (antifibrillatory) effect, aconitine-induced arrhythmia in mice; assay type: in vivo; conditions: Mus musculus, iv, read-out: Antifibrillatory activity, % reduction
Experimental: (c) Antiarrhythmic effect
In order to evaluate the antiarrhythmic activity of the carnitine derivatives of this invention studied with in vivo tests in addition to and in comparison with the currently employed in vitro tests, the method disclosed by Nwangwu et al. (Arch. Int. Pharmacodyn., 1977, 229, 219) was used.
According to this method an aconitine solution is injected into the caudal vein of mice and the onset time of arrhythmia and tachycardia after 2 to 60 minutes from administration of the compounds under examination is recorded.
The antiarrhythmic activity calculated from the increase in the latency time of the onset of the arrhythmias of the treated animals in comparison with the controls, is illustrated in the Table.

[2] = Acute toxicity (LD50) in mice; conditions: mouse, in vivo, ip
Description: (a) Acute toxicity (LD50)
Acute toxicity was investigated by using the method disclosed by Weil C. S. in "Tables for convenient calculation of median-effective dose (LD50 or ED50) and instructions in their use", Biometrics, 249-253, 1952.
The tolerance of the compounds under examination was investigated in mice after administration by the intraperitoneal or oral route. […] (see the Table).

[3] = tested on: mice; assay: Adrenaline-antagonizing effect in mice; assay type: in vivo, male Albino Swiss mice; conditions: Mus musculus, ip, 30 min before adrenaline, mortality checked for 36 hours, read-out: Antiadrenaline activity, % mortality reduction; for responders at 300 mg/kg: dose 300 mg kg^-1 i.p.; for responders at 100 mg/kg: dose 100 mg kg^-1 i.p.; for responders at 50 mg/kg: dose 50 mg kg^-1 i.p.; for responders at 70 mg/kg: dose 70 mg kg^-1 i.p.
Experimental: (d) Adrenaline-antagonizing effect
Groups of ten male Albino Swiss mice, weighing 12-22 g, were intraperitoneally administered either with the esters of the present invention or with saline (control) and, after 30 minutes, with adrenaline (treated) at a dose capable of bringing about death to 100% of the control animals due to ventricular fibrillation and cardiac lesions ensuing from increase in frequency, pressure and oxygen uptake from the myocardium.
Mortality was checked for 36 hours and the effect of the compounds expressed as percentage of surviving animals, is shown in the Table.

[4] = tested on: rabbit isolated heart; assay: Inotropic effect on rabbit isolated heart (Langendorff) after anoxia; conditions: Oryctolagus cuniculus, 10 min, dose 10^-5 gl^-1, 10 minutes after interruption of the anoxic period, increase against controls
Experimental: Rabbit hearts isolated by the Langendorff method were perfused with oxygenized Ringer solution at 38.2° C. The isometric contractions, electrogardiogram and coronary flow were recorded using a "Battaglia-Rangoni" polygraph. By removing the oxygen from the perfusion fluid, metabolic damage was induced in the cardiac muscle, up to an 80% reduction in the cardiac contractile force.
Under these conditions of prolonged anoxia the aerobic glycolysis of the myocardium is slowed down, accompanied by the storage of acid catabolites due to both the accumulation of pyruvic acid and its conversion to lactic acid which cannot be utilized because of the depression of pyridine enzymes, such as LDH (lactodehydrogenase). This has repercussions on the anaerobic glycolysis affecting an ever increasing number of enzymes, accompanied by a progressive and increasingly critical exhaustion of the myocardium. Thus a whole series of cardiac muscle fatigue levels occurs which can be observed by the behavior of the examined parameters, namely the contractile force, coronary flow, heart rate and cardiac rhythm. As soon as the contractile force was reduced by 80%, the perfusion fluid was once again oxygenized either without adding other compounds (controls) or with the addition of the compounds under examination.
In the Table there are shown the percentage value of increase against the controls.

SMILES | inhibition in vivo at 50 mg/kg [1] [%] | LD50 [2] [mg/kg] | activation at 0.01 µg/mL [4] [%] | responders at 100 mg/kg [3] [%] | also measured
CCOC(C)C(=O)OC(CC(=O)OC(C)C)C[N+](C)(C)C (centres unmarked) [R = 2-ethoxypropionyl; R' = isopropyl] | 70 | 1200 | 50 |  | responders at 300 mg/kg [3]: 50%
COC(C)C(=O)OC(CC(=O)OC(C)C)C[N+](C)(C)C (centres unmarked) [R = 2-methoxypropionyl; R' = isopropyl, 2-methoxy propionyl carnitine isopropyl ester] | 68 | 850 | 70 | 58 | 
CCCCOC(=O)CC(C[N+](C)(C)C)OC(=O)COCC (centres unmarked) [R = ethoxyacetyl; R' = butyl] |  | 600 | 58 | 75 | inhibition in vivo at 40 mg/kg [1]: 75%
CCOCC(=O)OC(CC(=O)OCC)C[N+](C)(C)C (centres unmarked) [R = ethoxyacetyl; R' = ethyl] |  | 600 | 68 |  | inhibition in vivo at 35 mg/kg [1]: 65%; responders at 50 mg/kg [3]: 50%
CCOCC(=O)OC(CC(=O)OCC(C)C)C[N+](C)(C)C (centres unmarked) [R = ethoxyacetyl; R' = isobutyl, ethoxyacetyl carnitine isobutyl ester] |  | 750 | 70 |  | inhibition in vivo at 10 mg/kg [1]: 70%; responders at 70 mg/kg [3]: 50%
CCOCC(=O)OC(CC(=O)OC(C)C)C[N+](C)(C)C (centres unmarked) [R = ethoxyacetyl; R' = isopropyl] | 70 | 700 | 72 | 60 | 
CCOCC(=O)OC(CC(=O)OC)C[N+](C)(C)C (centres unmarked) [R = ethoxyacetyl; R' = methyl] |  | 1100 | 55 |  | inhibition in vivo at 150 mg/kg [1]: 90%; responders at 300 mg/kg [3]: 75%
CCCOC(=O)CC(C[N+](C)(C)C)OC(=O)COCC (centres unmarked) [R = ethoxyacetyl; R' = propyl] | 75 | 620 | 49 | 75 | 
CCCCOC(=O)CC(C[N+](C)(C)C)OC(=O)COC (centres unmarked) [R = methoxyacetyl; R' = butyl] |  | 550 | 55 | 70 | inhibition in vivo at 40 mg/kg [1]: 75%
CCOC(=O)CC(C[N+](C)(C)C)OC(=O)COC (centres unmarked) [R = methoxyacetyl; R' = ethyl] | 70 | 550 | 58 |  | responders at 70 mg/kg [3]: 70%
COCC(=O)OC(CC(=O)OCC(C)C)C[N+](C)(C)C (centres unmarked) [R = methoxyacetyl; R' = isobutyl, methoxyacetyl carnitine isobutyl ester] |  | 690 | 79 |  | inhibition in vivo at 75 mg/kg [1]: 85%; responders at 300 mg/kg [3]: 60%
COCC(=O)OC(CC(=O)OC(C)C)C[N+](C)(C)C (centres unmarked) [R = methoxyacetyl; R' = isopropyl] | 80 | 800 | 55 |  | responders at 50 mg/kg [3]: 75%
COCC(=O)OC(CC(=O)OC)C[N+](C)(C)C (centres unmarked) [R = methoxyacetyl; R' = methyl] |  | 1200 | 72 |  | inhibition in vivo at 300 mg/kg [1]: 75%; responders at 450 mg/kg ([3]; dose 450 mg kg^-1 i.p.): 70%
CCCOC(=O)CC(C[N+](C)(C)C)OC(=O)COC (centres unmarked) [R = methoxyacetyl; R' = propyl] | 100 | 650 | 78 |  | responders at 50 mg/kg [3]: 75%
